Results reported in patent publication US7482008B1, “Human T cell reactive feline protein (TRFP) isolated from house dust and uses therefor” (Merck Patent GmbH, priority 1989, dated 2009).
Each block holds one molecule with its values, some of them ahead of it.

Tests used:
IgE = IgE binding of dimeric recombinant chain 1 and alkali treated TRFP
T cell = T cell reactivity of dimeric recombinant chain 1 and alkali treated TRFP; format: cell-based
human IgE [1] = test: SDS/PAGE Western immunoblot of human IgE binding, plasma from patient #417; details: patient #417 plasma
Procedure: Western immunoblot analysis of the peptides produced in above was performed. The concentration of all protein samples (e.g., TRFP, recombinant chain 1 of TRFP, recombinant chain 2 of TRFP, peptide XYZ, peptide XZY, peptide YXZ, peptide YZX, peptide ZXY and peptide ZYX) for gel electrophoresis was determined by the BCA method (Pierce Co.). All protein samples were loaded on the gel at 5 μg/lane except TRFP at 10 μg/lane. Protein separation was carried out on a 15% acrylamide gel, and transfer was performed by electroblotting at 1.5 Amps for 1.5 hours onto nitrocellulose paper (Schleicher and Schuell, 0.1 microns) in a Hoeffer apparatus according to the protocol of Towbin, H., T. Stachlin, and J. Gordon, PNAS 76:4350 (1979). Proteins were rinsed in blot solution (25 mM Tris-HCl 7.5, 0.171 M NaCl and 0.5 ml/liter Tween 20). The blot was then blocked for one hour in blocking solution (1% milk in blot solution). Plasma from patient #417, used as a primary antibody source, was diluted in blocking solution to 10% and preabsorbed for 1.5 hours with unused nitrocellulose (2 cm×15 cm). The prepared human plasma was then incubated overnight on an orbital shaker with the protein blot section of interest. Following the first antibody incubation the blot section was washed three times, each wash involved a fifteen minute incubation in blot solution. The second antibody, specific for human IgE (biotinylated goat anti-human IgE, KPL Inc.), was diluted 1:2500 in blot solution and the incubation proceeded for two hours. Excess second antibody was subsequently removed by three 15 minute incubations with blot solution. ^125I Iodinated streptavidin (Amersham) was diluted 1:2500 in blot solution and incubated with blots for 1 hour, at 2 μCi in a 50 ml incubation volume. Blot sections were then washed with blot solution until the detectable radioactivity in the waste solution decreased to background levels. The blot section was then wrapped in saran wrap and exposed to film overnight with a cronex intensifying screen at −80° C.

human IgE [2] = test: ELISA of human IgE binding, plasma from patient #669; details: patient #669 plasma
Procedure: Corning assay plates (#25882-96) were coated with 10 μg/ml of each coating antigen (i.e., TRFP, chain 1 (recombinant chain 1 of TRFP), chain 2 (recombinant chain 2 of TRFP), peptide XYZ, peptide XZY, peptide YXZ, peptide YZX, peptide ZXY and peptide ZYX) listed in FIG. 34 at 50 μl/well and incubated overnight at 4° C. The coating antigens were removed and the wells were blocked with 0.5% gelatin in PBS, 200 μl/well for 2 hours at room temperature. Plasma from patient #669 was serially diluted with PBS-Tween 20 (PBS with 0.05% nonionic detergent Tween-20 Sigma, St. Louis Mo.) and 100 μl/well was added and incubated overnight at 4° C. (plasma dilutions are tested in duplicate). The second antibody (biotinylated goat anti-Human IgE, 1:1000, Kirkegaard & Perry Laboratories Inc. Gaithersburg, Md.), was added at 100 μl/well for one hour at room temperature. This solution was removed and streptavidin-HRPO, 1:10,000 (Southern Biotechnology Associates, Inc., Birmingham, Ala.) was then added at 100 μl/well for one hour at room temperature (all wells were washed three times with PBS-Tween between each incubation step). TMB Membrane Peroxidase Substrate system (Kirkegaard & Perry Laboratories) was freshly mixed, and added at 100 μl/well. The color was allowed to develop for 2-5 minutes. The reaction was stopped by the addition of 100 μl/well of 1M phosphoric acid. Plates were read on a Microplate EL 310 Autoreader (Biotek Instruments, Winooski, Vt.) with a 450 nm filter. The absorbance levels of duplicate wells were averaged.

IgE binding (IgE): markedly reduced IgE binding
Molecule: mild alkali treated TRFP: mild alkali treated TRFP
T cell reactivity (T cell): maintains T cell reactivity

IgE binding (IgE): markedly reduced IgE binding
Molecule: recombinant chain 1 of TRFP in a dimeric form: recombinant chain 1 of TRFP in a dimeric form
T cell reactivity (T cell): maintains T cell reactivity

IgE binding, ELISA (human IgE [2]): clear reactivity with IgE
B1: peptide ZXY: recombinant peptide: peptide Z, peptide X and peptide Y linked in this order (protein)
chain: MGHHHHHHEFFFAVANGNELLLDLSLTKVNATEPERKRDVDLFLTGTPDEYVEQVAQYKALPVVLENARILKNCVDAKMTEEDKE
IgE binding, Western immunoblot (human IgE [1]): show IgE binding
